# Entries after “also recorded” stand apart in the source; their conditions may differ. Read-outs that look alike come from different tables or passages of the source.
# Columns and labels:
# HCT116 cells = assay: Antiproliferation CCK-8 assay, HCT116; format: cell-based; details: Homo sapiens, HCT-116; CCK-8, 72 h, HCT116 (wild-type BRAF); means of three independent experiments; read-out: Cellular IC50 HCT116
# HDAC4 = biological target: T1, HDAC4 (Homo sapiens, UniProt P56524); assay: HDAC4 fluorescent-based enzymatic activity assay; format: biochemical; details: Table 3 isoform panel; read-out: Enzyme inhibition HDAC4 (Class IIA)
# T1 construct: purchased BPS Bioscience
# Experimental: (§1) The purified recombinant Human HDACs and their corresponding substrates were purchased from BPS Bioscience (BPS Bioscience Inc., United States). The assays were carried out in a 384-well format using the BPS fluorescent–based HDAC activity assay according to the manufacturer’s protocol. In brief, […] of the HDAC reaction mixture was composed of HDAC assay buffer, […] BSA, serial diluted test compounds, appropriate concentration of HDACs, and […] fluorogenic substrate, the mixture was incubated at 37°C for 60 min, and then stopped by the addition of developer containing trypsin and TSA. After 20 min of incubation, the fluorescence was detected at the excitation wavelength of 360 nm and the emission wavelength of 460 nm using the EnVision Multilabel Reader (PerkinElmer Inc., United States). The analytical software, GraphPad Prism 5.0 (GraphPad Software, Inc., United States) was used to generate IC50 value via non-linear regression analysis.
# BRAF (wild-type) [1] = biological target: T2, BRAF (wild-type) (Homo sapiens, UniProt P15056); assay: wild-type BRAF enzymatic activity, Z'-Lyte kinase assay; format: biochemical; details: wild-type BRAF kinase; read-out: BRAF^wt enzymatic IC50
# T2 construct: purchased Invitrogen
# Experimental: (§2) The experiments were performed according to the instructions of the manufacturer. […] For each assay, 10 μl kinase reactions were added to 384-well plate, mixed thoroughly, and incubated for 1 hour at room temperature. Then, a 5 μl development solution was added to each well and the plate was incubated for another 1 h at room temperature. Then, a 5 μl stop reagent was loaded to stop the reaction. For the control setting, a 5 μl phospho-peptide solution instead of kinase/peptide mixture was used as 100% phosphorylation control. […] The plate was measured on an EnVision Multilabel Reader (Perkin-Elmer). Curve fitting and data presentations were performed using GraphPad Prism, version 5.0. Every experiment was repeated at least two times.
# BRAF (wild-type) [2] = assay: as above; format: biochemical; details: ratio of enzymatic IC50
# Experimental: as §2
# HDAC3 = biological target: T3, HDAC3 (Homo sapiens, UniProt O15379); assay: HDAC3 fluorescent-based enzymatic activity assay; format: biochemical; details: Table 3 isoform panel; read-out: Enzyme inhibition HDAC3 (Class I)
# T3 construct: purchased BPS Bioscience
# Experimental: as §1
# HDAC5 = biological target: T4, HDAC5 (Homo sapiens, UniProt Q9UQL6); assay: HDAC5 fluorescent-based enzymatic activity assay; format: biochemical; details: Table 3 isoform panel; read-out: Enzyme inhibition HDAC5 (Class IIA)
# T4 construct: purchased BPS Bioscience
# Experimental: as §1
# HDAC1 = biological target: T5, HDAC1 (Homo sapiens, UniProt Q13547); assay: HDAC1 fluorescent-based enzymatic activity assay; format: biochemical
# T5 construct: purchased BPS Bioscience
# Experimental: as §1
# P-ERK in B16 cells = assay: Immunoblot analysis of P-ERK in B16 cells; format: cell-based; details: B16 mouse melanoma cells with wild type BRAF, 24 h
# From the text: Supplementary Figure 2. 14b inhibit the phosphorylation of ERK in B16 cells.
# HT-29 cells = assay: Antiproliferation CCK-8 assay, HT-29; format: cell-based; details: Homo sapiens; CCK-8, 72 h, HT-29 (BRAF^V600E); means of three independent experiments; read-out: Cellular IC50 HT-29
# HDAC7 = biological target: T6, HDAC7 (Homo sapiens, UniProt Q8WUI4); assay: HDAC7 fluorescent-based enzymatic activity assay; format: biochemical; details: Table 3 isoform panel; read-out: Enzyme inhibition HDAC7 (Class IIA)
# T6 construct: purchased BPS Bioscience
# T6 sequence (Q8WUI4 1-952): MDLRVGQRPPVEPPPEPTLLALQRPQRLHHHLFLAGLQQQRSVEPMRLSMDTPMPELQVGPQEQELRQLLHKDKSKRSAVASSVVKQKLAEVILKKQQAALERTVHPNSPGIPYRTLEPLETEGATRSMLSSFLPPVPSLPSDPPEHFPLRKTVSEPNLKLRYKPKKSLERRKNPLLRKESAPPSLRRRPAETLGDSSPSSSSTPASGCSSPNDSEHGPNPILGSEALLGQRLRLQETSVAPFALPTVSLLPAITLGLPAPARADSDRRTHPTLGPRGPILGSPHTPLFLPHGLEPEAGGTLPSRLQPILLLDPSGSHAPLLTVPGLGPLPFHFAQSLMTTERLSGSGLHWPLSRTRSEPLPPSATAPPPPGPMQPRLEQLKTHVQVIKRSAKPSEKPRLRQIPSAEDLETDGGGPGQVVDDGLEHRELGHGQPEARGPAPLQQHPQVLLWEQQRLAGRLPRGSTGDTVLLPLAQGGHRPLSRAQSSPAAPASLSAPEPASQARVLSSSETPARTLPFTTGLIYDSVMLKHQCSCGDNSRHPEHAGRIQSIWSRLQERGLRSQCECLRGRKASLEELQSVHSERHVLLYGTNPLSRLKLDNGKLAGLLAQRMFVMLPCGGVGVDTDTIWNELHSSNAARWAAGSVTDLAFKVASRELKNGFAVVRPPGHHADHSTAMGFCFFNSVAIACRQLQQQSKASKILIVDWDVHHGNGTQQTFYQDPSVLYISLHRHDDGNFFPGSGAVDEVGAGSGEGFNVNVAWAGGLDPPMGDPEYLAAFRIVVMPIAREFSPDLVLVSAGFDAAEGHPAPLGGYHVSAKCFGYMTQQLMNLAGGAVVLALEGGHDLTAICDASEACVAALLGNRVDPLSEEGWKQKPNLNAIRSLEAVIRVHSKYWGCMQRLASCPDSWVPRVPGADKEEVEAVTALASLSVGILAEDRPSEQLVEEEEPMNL
# Experimental: as §1
# T5 sequence (Q13547 whole entry): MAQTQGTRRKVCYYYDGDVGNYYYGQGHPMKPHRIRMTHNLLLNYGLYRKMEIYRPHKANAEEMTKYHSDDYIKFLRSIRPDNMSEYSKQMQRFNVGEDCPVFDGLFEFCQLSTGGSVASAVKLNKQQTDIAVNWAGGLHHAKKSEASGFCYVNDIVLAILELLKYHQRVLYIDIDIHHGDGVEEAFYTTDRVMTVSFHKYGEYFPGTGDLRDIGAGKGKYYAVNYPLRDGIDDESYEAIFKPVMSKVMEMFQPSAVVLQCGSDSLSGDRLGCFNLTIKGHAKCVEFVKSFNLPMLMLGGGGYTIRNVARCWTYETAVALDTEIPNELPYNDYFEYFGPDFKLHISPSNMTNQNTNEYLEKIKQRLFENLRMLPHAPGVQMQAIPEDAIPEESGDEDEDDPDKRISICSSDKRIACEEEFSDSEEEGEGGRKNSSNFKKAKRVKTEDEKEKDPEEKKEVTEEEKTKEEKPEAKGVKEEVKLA
# T2 sequence (P15056 whole entry): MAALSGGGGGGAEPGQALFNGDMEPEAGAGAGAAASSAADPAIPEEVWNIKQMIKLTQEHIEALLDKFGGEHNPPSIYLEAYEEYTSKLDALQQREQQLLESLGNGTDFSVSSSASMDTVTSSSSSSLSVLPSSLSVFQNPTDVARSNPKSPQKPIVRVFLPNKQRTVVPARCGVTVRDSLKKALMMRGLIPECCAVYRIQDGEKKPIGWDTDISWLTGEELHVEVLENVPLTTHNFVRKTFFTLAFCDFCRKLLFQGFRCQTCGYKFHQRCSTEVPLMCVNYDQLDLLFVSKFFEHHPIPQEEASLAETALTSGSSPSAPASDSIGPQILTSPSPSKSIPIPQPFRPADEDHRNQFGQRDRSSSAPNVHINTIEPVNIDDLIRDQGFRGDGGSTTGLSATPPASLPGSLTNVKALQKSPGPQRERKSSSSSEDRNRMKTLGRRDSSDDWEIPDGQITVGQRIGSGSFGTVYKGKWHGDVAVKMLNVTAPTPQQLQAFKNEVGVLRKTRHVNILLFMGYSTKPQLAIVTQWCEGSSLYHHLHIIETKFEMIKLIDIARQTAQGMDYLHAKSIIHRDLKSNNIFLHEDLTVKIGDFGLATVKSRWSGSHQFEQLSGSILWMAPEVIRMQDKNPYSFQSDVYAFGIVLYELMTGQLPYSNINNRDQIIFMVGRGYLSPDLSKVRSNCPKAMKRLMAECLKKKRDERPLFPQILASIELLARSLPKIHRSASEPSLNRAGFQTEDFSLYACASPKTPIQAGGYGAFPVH
# T1 sequence (P56524 whole entry, canonical isoform): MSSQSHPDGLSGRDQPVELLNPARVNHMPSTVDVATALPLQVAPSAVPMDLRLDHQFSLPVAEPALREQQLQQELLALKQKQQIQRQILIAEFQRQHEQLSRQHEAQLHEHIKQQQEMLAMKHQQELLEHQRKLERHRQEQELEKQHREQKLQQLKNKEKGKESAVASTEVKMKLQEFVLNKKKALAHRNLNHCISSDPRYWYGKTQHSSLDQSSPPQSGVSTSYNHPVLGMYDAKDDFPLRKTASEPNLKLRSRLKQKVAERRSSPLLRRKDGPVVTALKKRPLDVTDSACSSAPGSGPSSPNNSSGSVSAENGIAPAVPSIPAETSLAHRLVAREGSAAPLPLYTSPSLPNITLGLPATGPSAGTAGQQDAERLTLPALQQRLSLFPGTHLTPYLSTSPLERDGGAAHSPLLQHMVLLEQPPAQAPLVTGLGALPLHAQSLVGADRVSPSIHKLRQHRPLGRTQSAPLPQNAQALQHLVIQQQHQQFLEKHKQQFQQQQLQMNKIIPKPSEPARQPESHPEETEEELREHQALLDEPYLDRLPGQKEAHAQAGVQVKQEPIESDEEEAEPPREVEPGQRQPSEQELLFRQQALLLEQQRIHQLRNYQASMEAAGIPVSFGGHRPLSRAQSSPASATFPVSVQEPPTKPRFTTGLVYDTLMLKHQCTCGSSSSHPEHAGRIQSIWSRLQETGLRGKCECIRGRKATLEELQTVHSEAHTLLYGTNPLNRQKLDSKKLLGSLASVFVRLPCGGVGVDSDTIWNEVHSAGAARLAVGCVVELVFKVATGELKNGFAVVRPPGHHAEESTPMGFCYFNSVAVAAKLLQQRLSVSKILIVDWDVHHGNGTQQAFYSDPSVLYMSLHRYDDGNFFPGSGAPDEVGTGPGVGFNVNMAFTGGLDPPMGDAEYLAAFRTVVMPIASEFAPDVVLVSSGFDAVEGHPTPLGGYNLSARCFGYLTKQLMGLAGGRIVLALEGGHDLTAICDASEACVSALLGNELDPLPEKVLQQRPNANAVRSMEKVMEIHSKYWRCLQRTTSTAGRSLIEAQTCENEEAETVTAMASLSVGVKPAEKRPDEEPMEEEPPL
# T3 sequence (O15379 whole entry, canonical isoform): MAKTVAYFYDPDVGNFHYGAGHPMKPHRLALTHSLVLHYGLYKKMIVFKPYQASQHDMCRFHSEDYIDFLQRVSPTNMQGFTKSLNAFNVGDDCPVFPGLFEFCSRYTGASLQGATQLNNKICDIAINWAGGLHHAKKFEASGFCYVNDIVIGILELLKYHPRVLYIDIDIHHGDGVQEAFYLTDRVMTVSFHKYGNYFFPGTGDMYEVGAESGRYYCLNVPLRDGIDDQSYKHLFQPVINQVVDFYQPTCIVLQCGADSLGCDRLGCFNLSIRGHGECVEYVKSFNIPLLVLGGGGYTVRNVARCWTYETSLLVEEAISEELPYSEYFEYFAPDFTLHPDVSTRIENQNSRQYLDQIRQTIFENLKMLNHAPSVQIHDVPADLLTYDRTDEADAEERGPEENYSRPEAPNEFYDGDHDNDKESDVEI
# T3 sequence (Q9Y618 395-489 partner limits assumed): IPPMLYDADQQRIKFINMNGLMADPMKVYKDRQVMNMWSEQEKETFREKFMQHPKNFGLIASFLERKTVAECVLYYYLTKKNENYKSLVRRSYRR
# T4 sequence (Q9UQL6 whole entry, canonical isoform): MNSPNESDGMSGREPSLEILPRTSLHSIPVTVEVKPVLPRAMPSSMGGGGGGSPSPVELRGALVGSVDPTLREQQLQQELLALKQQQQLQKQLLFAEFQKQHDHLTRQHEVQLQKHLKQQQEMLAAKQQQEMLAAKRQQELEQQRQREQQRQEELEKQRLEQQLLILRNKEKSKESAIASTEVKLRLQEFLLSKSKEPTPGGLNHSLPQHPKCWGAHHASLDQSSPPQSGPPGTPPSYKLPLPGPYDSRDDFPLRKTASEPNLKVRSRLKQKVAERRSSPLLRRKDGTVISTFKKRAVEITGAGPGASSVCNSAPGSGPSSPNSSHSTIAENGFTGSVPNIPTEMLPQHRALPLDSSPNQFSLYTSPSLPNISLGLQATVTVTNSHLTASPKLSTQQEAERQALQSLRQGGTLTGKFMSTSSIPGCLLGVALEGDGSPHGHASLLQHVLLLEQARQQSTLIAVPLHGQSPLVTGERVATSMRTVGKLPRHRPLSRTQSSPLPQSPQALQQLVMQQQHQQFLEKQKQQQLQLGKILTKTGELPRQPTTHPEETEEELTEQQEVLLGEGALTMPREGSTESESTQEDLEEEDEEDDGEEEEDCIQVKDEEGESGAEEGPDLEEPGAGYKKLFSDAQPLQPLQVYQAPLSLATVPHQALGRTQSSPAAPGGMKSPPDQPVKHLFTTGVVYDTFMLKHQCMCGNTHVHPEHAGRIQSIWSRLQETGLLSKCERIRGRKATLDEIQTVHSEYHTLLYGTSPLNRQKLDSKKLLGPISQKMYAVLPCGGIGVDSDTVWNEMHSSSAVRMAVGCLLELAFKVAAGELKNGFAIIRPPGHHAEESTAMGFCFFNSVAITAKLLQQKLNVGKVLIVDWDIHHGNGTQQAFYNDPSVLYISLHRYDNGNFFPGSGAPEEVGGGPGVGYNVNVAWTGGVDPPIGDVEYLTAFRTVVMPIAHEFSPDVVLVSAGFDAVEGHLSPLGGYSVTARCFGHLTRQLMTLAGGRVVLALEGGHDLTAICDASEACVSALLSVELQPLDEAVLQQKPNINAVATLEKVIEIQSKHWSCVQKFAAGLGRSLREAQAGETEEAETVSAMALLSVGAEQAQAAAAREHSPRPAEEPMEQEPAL
structure (smiles),measurement,setting,value
"CC(C)(C)c1nc(-c2cccc(NS(=O)(=O)c3c(F)cccc3F)c2F)c(-c2ccnc(NCCCCCCC(=O)NO)n2)s1 [14b, 7-{[4-(2-(Tert-Butyl)-4-(3-((2,6-Difluorophenyl)Sulfonamido)-2-Fluorophenyl)Thiazol-5-yl)Pyrimidin-2-yl]Amino}-N-Hydroxyheptanamide]",IC50,HCT116 cells,1680 nM
same,IC50,HDAC4,> 100000 nM
same,IC50,BRAF (wild-type) [1],4.07 nM
same,selectivity of BRAF^V600E over wild-type BRAF,BRAF (wild-type) [2],about 2 fold
same,IC50,HDAC3,913 nM
same,IC50,HDAC5,52900 nM
same,IC50,"HDAC1; Table 1, read-out: Enzymatic IC50 HDAC1",494 nM
same,IC50,"HDAC1; Table 3 isoform panel, read-out: Enzyme inhibition HDAC1 (Class I)",493 nM
same,phosphorylation of ERK (P-ERK),P-ERK in B16 cells,downregulate P-ERK; also recorded: p-ERK inhibition was observed
same,IC50,HT-29 cells,310 nM
same,IC50,HDAC7,43300 nM

# — paper PMC9354042, “Discovery of BRAF/HDAC Dual Inhibitors Suppressing Proliferation of Human Colorectal Cancer Cells” (Frontiers in Chemistry, 2022)
